Assay results taken from BindingDB's records for doi:10.1016/s0014-2999(00)00916-x (The Royal Danish School of Pharmacy, 2001).

Experiments:
Glutamate receptor 3 = Glutamate receptor 3 (Rattus norvegicus, UniProt P19492)
[1] = biological target: Glutamate receptor ionotropic, kainate 1 (Rattus norvegicus, UniProt P22756)
[2] = biological target: Glutamate receptor ionotropic, NMDA 1 (Rattus norvegicus, UniProt P35439)

Sequence of Glutamate receptor 3 (P19492 whole entry): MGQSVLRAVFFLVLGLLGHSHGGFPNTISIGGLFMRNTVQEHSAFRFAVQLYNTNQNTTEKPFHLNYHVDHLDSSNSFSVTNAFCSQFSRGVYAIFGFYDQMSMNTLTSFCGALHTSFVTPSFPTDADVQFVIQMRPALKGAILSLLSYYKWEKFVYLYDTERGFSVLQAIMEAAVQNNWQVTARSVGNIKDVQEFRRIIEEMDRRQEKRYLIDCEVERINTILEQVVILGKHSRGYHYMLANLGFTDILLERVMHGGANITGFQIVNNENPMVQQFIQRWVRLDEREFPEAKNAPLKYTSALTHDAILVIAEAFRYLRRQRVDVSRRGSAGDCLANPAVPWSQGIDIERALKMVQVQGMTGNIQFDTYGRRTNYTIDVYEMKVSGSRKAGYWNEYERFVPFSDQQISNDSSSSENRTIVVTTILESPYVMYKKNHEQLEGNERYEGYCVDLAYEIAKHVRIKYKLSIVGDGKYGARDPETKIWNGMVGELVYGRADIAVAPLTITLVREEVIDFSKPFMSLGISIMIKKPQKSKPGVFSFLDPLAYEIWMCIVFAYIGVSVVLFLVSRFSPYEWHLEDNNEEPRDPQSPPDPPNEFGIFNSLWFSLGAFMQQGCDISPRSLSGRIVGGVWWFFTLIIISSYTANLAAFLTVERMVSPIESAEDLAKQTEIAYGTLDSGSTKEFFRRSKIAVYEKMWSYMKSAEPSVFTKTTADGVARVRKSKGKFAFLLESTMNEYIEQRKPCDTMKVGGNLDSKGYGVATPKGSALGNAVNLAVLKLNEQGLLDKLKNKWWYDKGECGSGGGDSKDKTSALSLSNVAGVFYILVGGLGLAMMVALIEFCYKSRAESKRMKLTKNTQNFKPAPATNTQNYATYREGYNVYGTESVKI
Sequence of Glutamate receptor ionotropic, kainate 1 (P22756 whole entry): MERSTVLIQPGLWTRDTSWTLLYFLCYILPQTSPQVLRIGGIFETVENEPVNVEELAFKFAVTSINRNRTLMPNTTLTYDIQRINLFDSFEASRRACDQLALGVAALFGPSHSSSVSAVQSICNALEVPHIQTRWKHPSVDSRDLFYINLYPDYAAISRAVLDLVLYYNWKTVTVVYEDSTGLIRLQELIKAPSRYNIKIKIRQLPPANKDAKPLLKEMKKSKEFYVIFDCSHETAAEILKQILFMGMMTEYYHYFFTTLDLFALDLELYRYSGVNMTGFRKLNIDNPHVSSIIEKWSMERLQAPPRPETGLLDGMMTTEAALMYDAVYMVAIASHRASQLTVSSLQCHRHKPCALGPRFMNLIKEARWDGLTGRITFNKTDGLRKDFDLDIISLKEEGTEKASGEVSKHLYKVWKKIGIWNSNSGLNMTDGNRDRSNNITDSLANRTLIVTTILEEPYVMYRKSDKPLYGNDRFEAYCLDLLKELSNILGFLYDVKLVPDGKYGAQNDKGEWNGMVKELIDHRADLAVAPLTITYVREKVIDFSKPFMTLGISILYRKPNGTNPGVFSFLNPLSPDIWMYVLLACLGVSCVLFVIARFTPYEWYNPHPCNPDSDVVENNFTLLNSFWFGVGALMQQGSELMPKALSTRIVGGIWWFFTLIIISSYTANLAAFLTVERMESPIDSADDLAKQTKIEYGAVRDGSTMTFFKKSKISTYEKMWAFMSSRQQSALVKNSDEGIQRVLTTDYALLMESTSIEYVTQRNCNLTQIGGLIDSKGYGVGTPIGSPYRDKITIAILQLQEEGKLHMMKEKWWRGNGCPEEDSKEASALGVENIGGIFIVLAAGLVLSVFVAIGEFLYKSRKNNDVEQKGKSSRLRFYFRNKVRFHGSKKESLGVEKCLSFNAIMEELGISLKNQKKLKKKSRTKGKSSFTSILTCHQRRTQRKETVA

Compound | Ki (Glutamate receptor 3) [µM] | Ki [1] [µM] | Ki [2] [µM]
CC(C)(C)c1o[nH]c(=O)c1C[C@@H](N)C(=O)O [ATPA-S] | 1.8 |  | 
CC(C)(C)c1onc(O)c1CC(N)C(=O)O (stereo not given) [NSC_2253] | > 10 |  | 
CC(C)(C)c1snc(O)c1CC(N)C(=O)O (stereo not given) [Thio-ATPA-S] |  | > 10 | > 10
CC(C)(C)c1o[nH]c(=O)c1C[C@H](N)C(=O)O [ATPA-R] | > 10 |  | 
